Measurements: patent US10716869B2, “Radiolabeled macrocyclic EGFR inhibitor” (Oncodesign SA, priority 2016, dated 2020)

Assays:
[1] = molecular target: T1, NCI-H3255 tumor cell homogenates (activated EGFR) (Homo sapiens, UniProt P00533, L858R); test: binding competition on tumor cell homogenates
T1 construct: endogenous in cells; host or cells: NCI-H3255
Protocol: (§1) FIG. 1: Binding affinity constant of Compound (II) determined in competition experiments on NCI-H3255 (A) and NCI-H441 (B) cell line extracts. NCI-H3255 and NCI-H441 cell line extracts were incubated at room temperature for 90 min with Compound (II) (0.5-0.7 nM) and with increasing concentrations of Compound (IIa) (0.05 nM to 10 μM).
(§2) The binding affinity of Compound (I) and the number of binding sites were first evaluated on NCI-H3255 and NCI-H441 tumor cell homogenates (FIG. 1). […] The number of binding sites was of the same order of magnitude (6.1±0.5×10^9 sites/μg protein).

[2] = molecular target: T2, NCI-H441 tumor cell homogenates (activated EGFR) (Homo sapiens, UniProt P00533); test: binding competition on tumor cell homogenates
T2 construct: endogenous in cells; host or cells: NCI-H441
Protocol: as §1, §2

[3] = biodistribution by ex vivo γ-counting in Sprague Dawley rats
Protocol: To evaluate the biodistribution of the pure S (II) and R (III) enantiomers compared to compound (I), dynamic PET scan imaging and ex vivo gamma counting were performed on Sprague Dawley rats. Animals were injected with the radiotracer solution diluted in NaCl 0.9% to prepare a solution of activity 4-6 MBq (gamma-counting experiments) or 11-13 MBq (PET imaging experiments) in a volume of 300-400 or 600-800 μL, respectively. Radioactivity content in all biological samples was determined with scintillation γ-counter (Cobra 4180, Perkin-Elmer Inc.).
At the light of the biodistribution data of compound (I), the biodistribution of the R (III)- and S (II)-enantiomers was assessed by γ-counting in the organs in which the accumulation of compound (I) was prominent (that is: blood, heart, kidneys, liver, stomach, small intestine and colon). Two timepoints were selected: 5 and 30 minutes post-injection. […] The higher uptakes of R enantiomer (III) and S enantiomer (II) in these organs were expected to be observed at early timepoints after injection, giving the highest signals in the γ-counter and therefore making the comparison of biodistribution data more relevant. Besides, as PET images were acquired with compound (I), PET imaging was included in the evaluation of the biodistribution of R enantiomer and S enantiomer. This gave the opportunity to had one additional timepoint at 4 hours post-injection for collection of major organs and determination of radioactivity content by ex vivo γ-counting.

[4] = read-out: binding affinity (Kd)

T2 sequence (P00533 25-1210): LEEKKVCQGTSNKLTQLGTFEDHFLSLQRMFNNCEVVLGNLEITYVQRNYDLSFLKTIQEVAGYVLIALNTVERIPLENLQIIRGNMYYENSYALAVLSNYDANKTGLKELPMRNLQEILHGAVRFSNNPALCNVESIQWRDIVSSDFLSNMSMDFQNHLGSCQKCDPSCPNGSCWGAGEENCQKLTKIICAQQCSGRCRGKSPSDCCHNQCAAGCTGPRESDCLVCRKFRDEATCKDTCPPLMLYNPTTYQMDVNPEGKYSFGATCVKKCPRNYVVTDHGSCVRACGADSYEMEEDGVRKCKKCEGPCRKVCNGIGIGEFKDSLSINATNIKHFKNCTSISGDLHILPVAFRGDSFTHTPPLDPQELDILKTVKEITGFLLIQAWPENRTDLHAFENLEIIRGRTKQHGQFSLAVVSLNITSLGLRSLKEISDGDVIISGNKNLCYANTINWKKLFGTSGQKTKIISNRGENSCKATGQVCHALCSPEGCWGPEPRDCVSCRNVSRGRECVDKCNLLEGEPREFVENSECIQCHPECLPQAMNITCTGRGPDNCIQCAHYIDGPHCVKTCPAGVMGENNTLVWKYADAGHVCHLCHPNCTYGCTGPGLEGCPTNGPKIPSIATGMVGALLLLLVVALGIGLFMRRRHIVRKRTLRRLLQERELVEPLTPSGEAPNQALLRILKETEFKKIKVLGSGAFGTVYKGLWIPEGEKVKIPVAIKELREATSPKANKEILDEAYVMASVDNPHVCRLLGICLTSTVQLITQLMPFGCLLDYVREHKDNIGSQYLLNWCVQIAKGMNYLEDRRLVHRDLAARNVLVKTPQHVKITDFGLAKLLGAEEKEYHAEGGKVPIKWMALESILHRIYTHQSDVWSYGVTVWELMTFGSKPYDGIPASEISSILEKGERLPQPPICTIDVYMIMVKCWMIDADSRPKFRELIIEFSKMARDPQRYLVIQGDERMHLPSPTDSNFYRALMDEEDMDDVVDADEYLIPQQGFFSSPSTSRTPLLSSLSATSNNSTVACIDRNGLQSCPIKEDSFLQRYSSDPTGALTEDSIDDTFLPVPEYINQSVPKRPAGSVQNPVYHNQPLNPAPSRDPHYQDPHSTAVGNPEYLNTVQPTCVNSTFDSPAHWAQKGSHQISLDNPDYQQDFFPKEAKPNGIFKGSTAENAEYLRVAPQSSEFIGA
T1 sequence (P00533 25-1210 L858R): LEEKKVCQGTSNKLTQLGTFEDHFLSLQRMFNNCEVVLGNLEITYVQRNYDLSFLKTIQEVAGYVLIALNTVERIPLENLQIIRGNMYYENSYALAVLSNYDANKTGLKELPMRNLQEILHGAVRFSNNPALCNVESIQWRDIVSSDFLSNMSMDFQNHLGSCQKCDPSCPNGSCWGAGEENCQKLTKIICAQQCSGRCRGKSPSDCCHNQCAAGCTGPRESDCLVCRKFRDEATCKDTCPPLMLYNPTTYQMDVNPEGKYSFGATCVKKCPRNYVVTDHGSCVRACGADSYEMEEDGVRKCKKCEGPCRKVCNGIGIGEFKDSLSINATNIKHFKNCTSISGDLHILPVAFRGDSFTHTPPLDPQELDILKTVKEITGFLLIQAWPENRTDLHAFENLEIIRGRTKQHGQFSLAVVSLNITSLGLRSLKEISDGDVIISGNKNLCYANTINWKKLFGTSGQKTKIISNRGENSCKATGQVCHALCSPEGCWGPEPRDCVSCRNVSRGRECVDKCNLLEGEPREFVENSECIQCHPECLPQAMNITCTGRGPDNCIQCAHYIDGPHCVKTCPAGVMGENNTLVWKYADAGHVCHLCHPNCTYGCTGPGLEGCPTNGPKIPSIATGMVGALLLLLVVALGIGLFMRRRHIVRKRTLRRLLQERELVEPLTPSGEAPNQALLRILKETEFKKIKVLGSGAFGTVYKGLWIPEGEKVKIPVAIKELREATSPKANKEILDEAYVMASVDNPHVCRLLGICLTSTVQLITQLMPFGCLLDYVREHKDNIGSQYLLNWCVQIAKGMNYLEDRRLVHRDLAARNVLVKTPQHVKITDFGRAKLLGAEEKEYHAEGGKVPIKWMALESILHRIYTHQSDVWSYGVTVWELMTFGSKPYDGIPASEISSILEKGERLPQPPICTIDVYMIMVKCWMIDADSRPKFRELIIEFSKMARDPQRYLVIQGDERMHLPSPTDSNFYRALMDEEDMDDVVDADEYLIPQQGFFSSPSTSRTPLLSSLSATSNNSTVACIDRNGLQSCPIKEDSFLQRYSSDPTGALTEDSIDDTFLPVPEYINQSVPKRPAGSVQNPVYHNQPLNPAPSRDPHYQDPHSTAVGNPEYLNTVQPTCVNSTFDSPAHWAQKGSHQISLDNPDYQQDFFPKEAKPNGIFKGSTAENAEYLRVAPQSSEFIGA

**Q.** What does the source list for `CC(C)C1NC(=O)Cc2ccc(Cl)cc2Nc2ncnc3cc(OCC[18F])c(cc23)OCCCNC1=O` (centres unmarked) [Compound (I)]?
**A.** number of binding sites [1]: 9.1±3.1×10^9 sites/μg protein; Kd [1, 4]: 23.8 ± 9 nM; number of binding sites [2]: 6.1±0.5×10^9 sites/μg protein; Kd [2, 4]: 25.8 ± 11.1 nM; uptake in liver ([3]; 5 minutes post injection): 1.66±0.43 % ID/g; uptake in small intestine ([3]; 5 minutes post injection): 0.28±0.15 % ID/g; uptake in blood ([3]; 5 minutes post-injection): 0.13±0.02 % ID/g; uptake in heart ([3]; 5 minutes post-injection): 0.91±0.12 % ID/g; uptake in kidneys ([3]; 5 minutes post-injection): 5.07±0.30 % ID/g; uptake in stomach ([3]; 5 minutes post-injection, unit printed as %): 1.27±2.13%; uptake in liver ([3]; 30 minutes post injection): 0.37±0.07 % ID/g; uptake in heart ([3]; 30 minutes post-injection): 0.23±0.05 % ID/g; uptake in kidneys ([3]; 30 minutes timepoint): 1.47±0.36 % ID/g; uptake in stomach ([3]; 30 minutes timepoint): 2.72±4.75 % ID/g; uptake in colon ([3]; four hours post-injection): 10.55±4.53 % ID/g; uptake in stomach ([3]; four hours post-injection): 0.14±0.23 % ID/g; uptake in small intestine ([3]; thirty minutes post-injection): 0.40±0.40 % ID/g
